This passage reports Ki results from BindingDB's records for doi:10.1038/42506 (The University of Tokyo, 1997).

The target of this test is T1, Leukotriene B4 receptor 2 (Homo sapiens, UniProt Q9NPC1).
T1 sequence (Q9NPC1 whole entry): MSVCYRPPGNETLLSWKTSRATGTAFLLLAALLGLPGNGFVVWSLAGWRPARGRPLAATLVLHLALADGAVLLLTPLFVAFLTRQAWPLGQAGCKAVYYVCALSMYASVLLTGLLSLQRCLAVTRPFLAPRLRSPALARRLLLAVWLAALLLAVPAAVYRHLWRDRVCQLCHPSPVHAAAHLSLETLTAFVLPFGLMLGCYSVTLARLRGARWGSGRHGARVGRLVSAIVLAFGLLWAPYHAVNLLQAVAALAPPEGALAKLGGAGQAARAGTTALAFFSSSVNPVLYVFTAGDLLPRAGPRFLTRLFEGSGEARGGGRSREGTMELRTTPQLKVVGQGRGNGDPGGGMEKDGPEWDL
`CCCCC/C=C\C[C@H](O)/C=C/c1cccc(C[C@H](O)CCCCO)n1` [(5R)-6-[6-[(1E,3S,5Z)-3-hydroxyundeca-1,5-dienyl]pyridin-2-yl]hexane-1,5-diol] had a Ki of 120 nM.

On to `CCCCCCC=CC(=O)C=CC=CC=CC(O)CCCC(=O)O` (stereo not given) [CAS_5280876], for which the Ki was determined as 7.6 nM.

Molecule `O=C(O)CCCC(O)C=CC=CC=CC(O)CC=CCCCCCO` (stereo not given) [NSC_1589] gave a Ki of 7.6 nM.

In the case of `O=C(O)CCCCCC=CCC(O)C=CC=CC=CC(O)CCCC(=O)O` (stereo not given) [NSC_128572], the affinity, expressed as Ki, was 190 nM.

`COc1ccc(/C=C/CCCCOc2cccc(OCCCCC(=O)O)c2CCC(=O)O)cc1` [ONO 4057] registered an inhibitory constant (Ki) of 1200 nM.
